Several values for one entry are separate records, joined by “and”; a condition that tells them apart may be missing. Identical values can stand only once.
Tests used:
Format in all cases: in vivo, mouse
[1] = system: mice, CIBP model (NCTC 2472 cell inoculation); experiment: Cancer-induced bone pain (CIBP) model, von Frey; conditions: for effect on PWT: CIBP, female mice
Description: (§1) solution (0.05 mg/kg) injected s.c. 30 min before surgery (10 μL/g). For surgery, mice were anaesthetised with ketamine (100 mg/kg, i.p.) and xylazine (10 mg/kg, i.p.) (volume 10 µL/g) with 100 μL of 1% xylocaine solution infiltrated at the site of the incision. The distal trifurcation of the sciatic nerve was identified, and the tibial and common peroneal branches were ligated with polypropylene nonabsorbable 6-0 sutures (Ethicon) and 1 mm was cut out, leaving the sural branch intact. The wound was closed with sutures, and the animals were allowed to recover and returned to their cages. Two subcutaneous injections of buprenorphine (0.05 mg/kg) were performed with an 8 to 12 hours delay decreasing pain due to the surgery […]
(§2) The remaining SNI pain experiments were performed in-house using the following procedure.
(§3) SNI surgery was performed on the left hindleg of C57BL/6J male and female mice (Janvier, France) under 2% isoflurane anaesthesia. Skin on the lateral surface was incised between hip and knee followed by lengthwise division of the biceps femoris muscle leading to exposure of the three branches of the sciatic nerve. Sural branch was left intact, while the peroneal and tibial branches were ligated with a single surgical knot and axotomized distally of the ligation.
(§4) Wounds were closed with surgical glue or medical clips and animals were monitored daily for signs of stress or discomfort, but in all cases recovered uneventfully.
(§5) Induction of Diabetic neuropathy (STZ model).
(§6) Diabetes was induced by a single i.p. injection of […] streptozocin (STZ) solution (100 μL/10 g, Sigma-Aldrich S0130, batch #WXBB7152V) in male seven-week-old C57BL/6J (Charles River) mice. Glycemia was tested before, and seven days after injection. All injected mice had blood glucose concentration >350 mg/dL from day seven and were used for analgesic testing of the compounds from day 14. One mouse had to be euthanized at seven days post injection. This experiment was performed by Phenotype Expertise, Marseilles, France - Pain and CNS behaviour CRO under supervision of Stéphane Gaillard, PhD (CEO).
(§7) Induction of cancer induced bone pain (CIBP model).
(§8) Osteosarcoma cell line NCTC 2472 (American Type Culture Collection, CCL-11TM) was cultured for two weeks prior to surgery in NCTC-135 medium (Sigma-Aldrich, Denmark) supplemented with sodium hydrogen carbonate and 10% equine serum (Sigma-Aldrich, Denmark). On the day of surgery, cells were washed with PBS and incubated with 3 mL trypsin-EDTA for five min followed by centrifugation (2800 rpm, 3 min). Supernatant was removed, and cell pellet resuspended in PBS to obtain a cell density of 10^7 cells/mL.
(§9) Two separate cohorts of female C3H/HeNHsd mice (Envigo, Netherlands) of 7-8 weeks, were anaesthetized with 6.25 mg/kg xylazine (Rompun vet, 20 mg/mL, Bayer, KVP Pharma + Veterinär Produkte GmbH, Germany, Batch: KV02BHF) and 43.75 mg/kg ketamine (Ketaminol vet, 100 mg/mL, MSD Animal Health, AN Boxmeer, The Netherlands, Batch:
(§10) A140A01) and received 1.0-1.2% isoflurane (1000 mg/g isoflurane, Attane vet, ScanVet, Piramal Critical Care Ltd., UK, Batch: G123J18B) during surgery. The mouse was placed on a 37 °C heating pad. Both hind legs were shaved, and a small horizontal incision was made under the knee followed by a vertical incision of approximately 0.5 cm until the patellar tendon was exposed. The patellar tendon was moved to the lateral side exposing the distal epiphysis of the femur. A hole was made in the middle of the distal epiphysis by gently pushing a 30 G needle (0.3x12 mm, 30 Gx1/2”, Luer-Lock, CHIRANA T. Injecta, CH30012) through the bone while rotating. The position of the needle was confirmed by X-ray imaging (IVIS Lumina XR Apparatus, Caliper Life Sciences, Belgium). Following resuspension, 10 μL, corresponding to […]
(§11) […] NCTC 2472 cells or PBS (sham mice), was injected in the bone marrow cavity with an insulin syringe (1 mL Luer, BD PlastipakTM, 303172) attached to a 30 G needle and left in the […]
(§12) femur for one min. […]

[2] = system: mice, CIBP model (NCTC 2472 cell inoculation); experiment: CIBP model, static weight bearing; conditions: for effect on weight-bearing ratio: CIBP, female mice; for static weight bearing (Fig S7C): CIBP mice, individual animals
Description: as §1, §2, §3, §4, §5, §6, §7, §8, §9, §10, §11, §12

naive mice = experiment: Capsaicin test (licking time); parameters: capsaicin-induced licking time, individual mice: unit not given here; conditions: for capsaicin-induced licking time, individual mice: female and male; for effect on capsaicin-induced licking time: naive mice, both sexes
Description: Naïve wildtype male and female mice (10 weeks of age) were habituated to handling and experimental set up for one week prior to data collection. […]
Mice were pretreated with 10 μmol/kg mPD5, 10 mg/kg morphine (RH Pharmacy, Denmark, Vnr. 475249), or PBS 45 min before habituation to observation container (glass cylinder surrounded by mirrors on 2 sides) for 15 min. Mice then received an intraplantar injection of 20 µl capsaicin (1.6 ug/paw) (sigma CAS Number:404-86-4, diluted with 1:1:8 solution of tween-20, 70% ethanol, and MilliQ water) in one hind paw and were reintroduced to the observation container. Mice were recorded for three min after i.pl. injection with capsaicin and euthanized the same day. Mice were scored manually for the amount of time spent paw licking within three min after capsaicin administration. […]
Females were weighed on a regular basis from removal of the males […]
Unless otherwise stated, all data were analysed using GraphPad Prism 9.4.1. and presented as mean +-SEM with the significance level set to p < 0.05. For locomotion and elevated plus maze, Ethovision XT 13 (Noldus) was used to track the distance travelled by each animal. For within group analysis (i.e., von Frey experiments), two-way ANOVA followed by Dunnett’s post hoc test was used. For between group analysis of multiple time points (i.e., locomotion experiments), two-way ANOVA was used without post hoc test due to lack of treatment significance in the ANOVA test. For the limb use experiment, data pre versus post treatment was analysed with a Kruskal Wallis test due to the non-parametric nature of the data. When analysing histograms of three groups or more (i.e., marble burying and elevated plus maze),

Structure (SMILES) | effect on PWT ([1]; s.c. 10 μmol/kg) | effect on weight-bearing ratio ([2]; s.c. 10 μmol/kg) | capsaicin-induced licking time, individual mice (naive mice; 10 umol/kg, female mice) | capsaicin-induced licking time, individual mice (naive mice; 10 umol/kg, male mice) | effect on capsaicin-induced licking time (naive mice; s.c. 10 μmol/kg) | von Frey paw withdrawal threshold, individual animals (Fig 4C) ([1]; BL1 (baseline 1)) | von Frey paw withdrawal threshold, individual animals (Fig 4C) ([1]; BL2 (baseline 2)) | effect on PWT ([1]; s.c. 5 mg/kg) | von Frey paw withdrawal threshold, individual animals (Fig 4C) ([1]; Post (after treatment)) | von Frey paw withdrawal threshold, individual animals (Fig 4C) ([1]; Pre (before treatment)) | static weight bearing (Fig S7C) ([2]; BL1) | static weight bearing (Fig S7C) ([2]; BL2) | static weight bearing (Fig S7C) ([2]; Post (after treatment)) | static weight bearing (Fig S7C) ([2]; Pre (before treatment)) | effect on weight-bearing ratio ([2]; s.c. 5 mg/kg) | capsaicin-induced licking time, individual mice (naive mice; 10 mg/kg) | effect on capsaicin-induced licking time (naive mice; s.c. 10 mg/kg)
CCCCCCCCCCCCCC(=O)N(CCOCCOCCC(=O)N[C@@H](Cc1c[nH]cn1)C(=O)N[C@@H](Cc1c[nH]c2ccccc12)C(=O)N[C@@H](CC(C)C)C(=O)N[C@@H](CCCCN)C(=O)N[C@H](C(=O)O)C(C)C)CCOCCOCCC(=O)N[C@@H](Cc1c[nH]cn1)C(=O)N[C@@H](Cc1c[nH]c2ccccc12)C(=O)N[C@@H](CC(C)C)C(=O)N[C@@H](CCCCN)C(=O)N[C@H](C(=O)O)C(C)C [mPD5, myristoyl-NPEG4-(HWLKV)2] | no effect | no effect | 12.96 and 9.28 and 8.67 and 18.61 | 12.98 and 14.19 and 30.63 | no effect on time spent licking | – | – | – | – | – | – | – | – | – | – | – | –
CN1CC[C@]23c4c5ccc(O)c4O[C@H]2[C@@H](O)C=C[C@H]3[C@H]1C5 [morphine] | – | – | – | – | – | 1.5 and 0.8 and 0.6 and 1 (2×) and 0.9 and 1.3 and 2 and 1.7 and 1.2 | 2.9 and 1.1 and 0.8 and 2.6 and 1.3 (2×) and 1.9 and 2.1 (2×) and 1.2 | partial but significant increase | 1.1 (2×) and 1 (2×) and 1.2 (3×) and 0.9 and 1.3 (2×) | 0.6 (2×) and 0.2 (3×) and 0.4 (3×) and 0.5 and 0.3 | 50.01 and 50.76 and 43.99 and 53.97 and 55.19 and 55.68 and 51.81 and 54.18 and 46.08 and 56.67 | 47.61 and 46.15 and 51.95 and 48.94 and 50.73 and 54.51 and 47.91 and 45.61 and 50.32 and 52.04 | 30.29 and 34.04 and 29.99 and 42.43 and 37.09 and 45.12 and 35.66 and 34.06 and 42.67 and 36.03 | 24.27 and 31.25 and 36.25 and 30.33 and 34.01 and 33.28 and 32.53 and 29.97 and 30.04 and 32.35 | partial but significant increase | 0 | significantly reduced the licking time

— article PMC11530130, “Peripherally restricted PICK1 inhibitor mPD5 ameliorates pain behaviors in murine inflammatory and neuropathic pain models” (JCI Insight, 2024)
